Measurements as given in article PMC4468608, “A distinct p53 target gene set predicts for response to the selective p53–HDM2 inhibitor NVP-CGM097” (eLife, 2015).
Read-outs that look alike come from different tables or passages of the source.

What was measured:
[1] = PK parameters in preclinical species; type: in vivo; details: Monkey
[2] = PK parameters in preclinical species; type: in vivo; details: Rat
[3] = PK parameters in preclinical species; type: in vivo; details: Dog
[4] = PK parameters in preclinical species; type: in vivo; details: Mouse
[5] = system: SJSA-1 (p53WT and HDM2-amplified); assay: Cell proliferation assay (YOPRO); type: cell-based; details: Homo sapiens, SJSA-1, read-out: SJSA-1 GI50
Experimental: (§1) Figure 1. […] (^d) Selectivity is determined by the ratio of GI50 obtained using SAOS-2 (p53-null) and SJSA-1 (p53^WT and HDM2-amplified) osteosarcoma pair of cell lines. […] The data used to generate these plots, as well as cell line identity is available in Figure 1—source data 1. […] The blue color indicates the reverse profile. Brighter colors indicate which target classes pass the 0.25 FDR cut-off.
(§2) All other cell lines were obtained from ATCC (American Type Culture Collection), DSMZ (Deutsche Sammlung von Mikroorganismen und Zellkulturen), and HSRRB (Health Science Research Resources Bank) and cultured in RPMI or Dulbecco's modified Eagle's medium plus 10% FBS (Invitrogen, Carlsbad, CA) at 37°C, 5% CO2.

SAOS-2 (p53-null) = assay: Cell proliferation assay (YOPRO); type: cell-based; details: Homo sapiens
Experimental: as §1, §2

HCT-116 p53WT = assay: Cell proliferation assay (YOPRO); type: cell-based; details: Homo sapiens, HCT-116, read-out: HCT-116 p53WT GI50
Experimental: as §1, §2

HCT-116 p53-null = assay: Cell proliferation assay (YOPRO); type: cell-based; details: Homo sapiens, HCT116-p53-null
Experimental: as §1, §2

[6] = single dose 0.1 mg/kg i.v. or 0.3 mg/kg p.o.
[7] = in vivo, iv, 0.1 mg/kg i.v., dose-normalized to 1 mg/kg, read-out: AUCinf i.v.
[8] = in vivo, iv, single dose 0.1 mg/kg i.v. or 0.3 mg/kg p.o.
[9] = in vivo, iv, single dose 0.1 mg/kg i.v. or 0.3 mg/kg p.o., read-out: Vss
[10] = in vivo, po, 0.3 mg/kg p.o., dose-normalized to 1 mg/kg
[11] = in vivo, po, 0.3 mg/kg p.o., dose-normalized to 1 mg/kg, read-out: AUCinf p.o.
[12] = single dose 1 mg/kg i.v. or 3 mg/kg p.o.
[13] = in vivo, iv, 1 mg/kg i.v., dose-normalized to 1 mg/kg, read-out: AUCinf i.v.
[14] = in vivo, iv, single dose 1 mg/kg i.v. or 3 mg/kg p.o.
[15] = in vivo, iv, single dose 1 mg/kg i.v. or 3 mg/kg p.o., read-out: Vss
[16] = in vivo, po, 3 mg/kg p.o., dose-normalized to 1 mg/kg
[17] = in vivo, po, 3 mg/kg p.o., dose-normalized to 1 mg/kg, read-out: AUCinf p.o.

Q: With `COc1cc2c(cc1OC(C)C)[C@H](c1ccc(Cl)cc1)N(c1ccc(N(C)C[C@H]3CC[C@H](N4CCNC(=O)C4)CC3)cc1)C(=O)C2` [NVP-CFC218] as the compound, how does the “Oral BA” value ([1]; 0.1 mg/kg i.v., 0.3 mg/kg p.o.) read?
A: 14 ± 2 %F

Q: And the t1/2app. [1, 6]?
A: 2.6 ± 0.3 h

Q: What about the AUC(0-inf) [1, 7] of the same compound?
A: 2.37 ± 0.31 µM·h

Q: What about the clearance [1, 8] of the same compound?
A: 11 ± 2 mL/min/kg

Q: What about the Vd [1, 9] of the same compound?
A: 2.1 ± 0.3 L/kg

Q: And the Tmax ([1]; in vivo, po, 0.3 mg/kg p.o.)?
A: 1 ± 0.1 h

Q: And the Cmax [1, 10]?
A: 77 ± 14 nM

Q: And the AUC(0-inf) [1, 11]?
A: 0.34 ± 0.05 µM·h

Q: What about the “Oral BA” value ([2]; 1 mg/kg i.v., 3 mg/kg p.o.) of the same compound?
A: 49 ± 15 %F

Q: What about the t1/2app. [2, 12] of the same compound?
A: 9.3 ± 1.9 h

Q: And the AUC(0-inf) [2, 13]?
A: 2.21 ± 0.21 µM·h

Q: What about the clearance [2, 14] of the same compound?
A: 12 ± 1 mL/min/kg

Q: What about the Vd [2, 15] of the same compound?
A: 8 ± 1.8 L/kg

Q: And the Tmax ([2]; in vivo, po, 3 mg/kg p.o.)?
A: 4 ± 1.4 h

Q: And the Cmax [2, 16]?
A: 75 ± 23 nM

Q: What about the AUC(0-inf) [2, 17] of the same compound?
A: 1.07 ± 0.34 µM·h

Q: And the “Oral BA” value ([3]; 0.1 mg/kg i.v., 0.3 mg/kg p.o.)?
A: 71 ± 8 %F

Q: What about the t1/2app. [3, 6] of the same compound?
A: 14.4 ± 0.7 h

Q: What about the AUC(0-inf) [3, 7] of the same compound?
A: 8.08 ± 1.68 µM·h

Q: And the clearance [3, 8]?
A: 3 ± 1 mL/min/kg

Q: And the Vd [3, 9]?
A: 3.6 ± 0.5 L/kg

Q: And the Tmax ([3]; in vivo, po, 0.3 mg/kg p.o.)?
A: 3.3 ± 1.2 h

Q: And the Cmax [3, 10]?
A: 240 ± 43 nM

Q: And the AUC(0-inf) [3, 11]?
A: 5.74 ± 0.68 µM·h

Q: And the “Oral BA” value ([4]; 1 mg/kg i.v., 3 mg/kg p.o.)?
A: 43 %F

Q: What about the t1/2app. [4, 12] of the same compound?
A: 3.6 h

Q: And the AUC(0-inf) [4, 13]?
A: 2.8 µM·h

Q: And the clearance [4, 14]?
A: 9 mL/min/kg

Q: What about the Vd [4, 15] of the same compound?
A: 3.1 L/kg

Q: What about the Tmax ([4]; in vivo, po, 3 mg/kg p.o.) of the same compound?
A: 2 h

Q: What about the Cmax [4, 16] of the same compound?
A: 94 nM

Q: And the AUC(0-inf) [4, 17]?
A: 1.2 µM·h

Q: And the GI50 [5]?
A: 353 ± 172 nM

Q: And the GI50 (SAOS-2 (p53-null); SAOS-2, mean ± SD, n ≥ 8)?
A: 19.8 µM

Q: And the IC50 (SAOS-2 (p53-null); SAOS-2 p53 null cells remained insensitive)?
A: ≥ 10 µM

Q: What about the GI50 (HCT-116 p53WT) of the same compound?
A: 473 ± 100 nM

Q: And the IC50 (HCT-116 p53-null; HCT-116 p53-null cells remained insensitive)?
A: ≥ 10 µM

Q: What about the GI50 (HCT-116 p53-null; mean ± SD, n ≥ 8) of the same compound?
A: 15.9 µM
